From patent publication US4206215A, “Antimicrobial bis-[4-(substituted-amino)-1-pyridinium]alkanes” (Sterling Drug Inc., priority 1977, dated 1980)
Like-named read-outs stand apart in the source and are kept apart here.

Tests used:
[1] = system: S. Aureus Smith; experiment: In vitro antibacterial activity, MIC (modified Autotiter method); format: cell-based, Staphylococcus aureus; conditions: Staphylococcus aureus, 20 h, read-out: MIC S. Aureus Smith
Description: (§1) The antibacterial and antifungal activity of representative examples of the compounds of Formula I was determined using a modification of the Autotiter method described by Goss, et al. Applied Microbiology 16 (9) 1,414-1,416 (1968) in which a 1,000 mcg./ml. solution of the test compound is prepared. To the first cup of the Autotray is added 0.1 ml. of the test solution. Activation of the Autotiter initiates a sequence of operations by which 0.05 ml. of the test compound solution is withdrawn from the cup by a Microtiter transfer loop and diluted in 0.05 ml. of sterile water. Following this operation, 0.05 ml. of inoculated double-strength semisynthetic medium (glucose) is added automatically to each cup. The overall operation results in final drug concentrations ranging from 500 to 0.06 mcg./ml. in twofold decrements. […] The compounds were thus tested as solutions against a variety of gram positive and gram negative bacteria including Staphylococcus aureus, Proteus mirabilis, Escherichia coli, Klebsiella pneumoniae, Pseudomonas aeruginosa, Streptococcus pyogenes, and against such fungi as Aspergillus niger, Candida albicans and Trichophyton mentagrophytes.

[2] = system: E. coli 100/B22; experiment: as above; format: cell-based, Escherichia coli; conditions: Escherichia coli, 100/B22, 20 h
Description: as §1

[3] = system: E. coli AB1932-1; experiment: as above; format: cell-based, Escherichia coli; conditions: Escherichia coli, AB19321, 20 h, read-out: MIC E. coli AB1932-1
Description: as §1

[4] = system: E. coli Vogel; experiment: as above; format: cell-based, Escherichia coli; conditions: Escherichia coli, 20 h, read-out: MIC E. coli Vogel
Description: as §1

[5] = system: K. pneum. 39645; experiment: as above; format: cell-based, Klebsiella pneumoniae; conditions: Klebsiella pneumoniae, 20 h, read-out: MIC K. pneum. 39645
Description: as §1

[6] = system: P. mirab. MGH-1; experiment: as above; format: cell-based, Proteus mirabilis; conditions: Proteus mirabilis, 20 h, read-out: MIC P. mirab. MGH-1
Description: as §1

[7] = system: Ps. aerug. MGH-2; experiment: as above; format: cell-based, Pseudomonas aeruginosa; conditions: Pseudomonas aeruginosa, 20 h, read-out: MIC Ps. aerug. MGH-2
Description: as §1

[8] = system: S. pyogen. C203; experiment: as above; format: cell-based, Streptococcus pyogenes; conditions: Streptococcus pyogenes, 20 h, read-out: MIC S. pyogen. C203
Description: as §1

[9] = system: A. niger 16404; experiment: In vitro antifungal activity, MIC (modified Autotiter method); format: cell-based, Aspergillus niger; conditions: Aspergillus niger, 16404, 20 h, read-out: MIC A. niger 16404
Description: as §1

[10] = system: C. albicans 10231; experiment: as above; format: cell-based, Candida albicans; conditions: Candida albicans, 10231, 20 h, read-out: MIC C. albicans 10231
Description: as §1

[11] = system: C. albicans Wisc.; experiment: as above; format: cell-based, Candida albicans; conditions: Candida albicans, 20 h, read-out: MIC C. albicans Wisc.
Description: as §1

[12] = system: T. menta. 9129; experiment: as above; format: cell-based, Trichophyton mentagrophytes; conditions: Trichophyton mentagrophytes, 20 h, read-out: MIC T. menta. 9129
Description: as §1

[13] = 18-20 hours at 37° C., read-out: MIC E. coli 100/B22

Compound | MIC ([1]; 18-20 hours at 37° C.) | MIC [2, 13] | MIC ([3]; 18-20 hours at 37° C.) | MIC ([4]; 18-20 hours at 37° C.) | MIC ([5]; 18-20 hours at 37° C.) | MIC ([6]; 18-20 hours at 37° C.) | MIC ([7]; 18-20 hours at 37° C.) | MIC ([8]; 18-20 hours at 37° C.) | MIC ([9]; 18-20 hours at 37° C.) | MIC ([10]; 18-20 hours at 37° C.) | MIC ([11]; 18-20 hours at 37° C.) | MIC ([12]; 18-20 hours at 37° C.) | other results
CCCCCCCCCNc1cc[n+](CCCCCCCCCC[n+]2ccc(NCCCCCCCCC)cc2)cc1 [Example 51, 1,10-bis-[4-(nonylamino)-1-pyridinium]decane dibromide] | 1.95 µg/mL | 3.9 µg/mL | 3.9 µg/mL | 1.95 µg/mL | 3.9 µg/mL | 3.9 µg/mL | 3.9 µg/mL | 1.95 µg/mL | 7.8 µg/mL | 3.9 µg/mL | 3.9 µg/mL | 1.95 µg/mL | 
CCCCCCCCNc1cc[n+](CCCCCCC[n+]2ccc(NCCCCCCCC)cc2)cc1 [Example 43, 1,7-bis-[4-(octylamino)-1-pyridinium]heptane dibromide] | 0.5 µg/mL | 1 µg/mL | 1 µg/mL | 1.95 µg/mL | 1 µg/mL | 7.8 µg/mL | 31.3 µg/mL | 1 µg/mL | 7.8 µg/mL | 1.95 µg/mL | 1.95 µg/mL | 1 µg/mL | 
CCCCCCNc1cc[n+](CCCCCCCCC[n+]2ccc(NCCCCCC)cc2)cc1 [Example 19, 1,9-bis-[4-(hexylamino)-1-pyridinium]-nonane dibromide] | 0.39 µg/mL | 1.95 µg/mL | 1.95 µg/mL | 1.95 µg/mL | 3.9 µg/mL | 125 µg/mL | 125 µg/mL | 0.49 µg/mL | 15.6 µg/mL | 1.95 µg/mL | 3.9 µg/mL | 3.9 µg/mL | 
Nc1cc[n+](CCCCCCCC[n+]2ccc(N)cc2)cc1 [I, 1,8-bis-(4-amino-1-pyridinium)octane dibromide, reference compound] | 31.3 µg/mL | 250 µg/mL | 125 µg/mL | 125 µg/mL | > 500 µg/mL | > 500 µg/mL | > 500 µg/mL | 31.3 µg/mL | 125 µg/mL | 125 µg/mL | 125 µg/mL | 125 µg/mL | 
CCCCCCCCCCCCNc1cc[n+](CCCCCC[n+]2ccc(NCCCCCCCCCCCC)cc2)cc1 [Example 70, 1,6-bis-[4-(dodecylamino)-1-pyridinium]hexane dibromide] | 7.8 µg/mL | 62.5 µg/mL | > 62.5 µg/mL | 31.3 µg/mL | > 62.5 µg/mL | > 62.5 µg/mL | > 62.5 µg/mL | 7.8 µg/mL | 62.5 µg/mL | 15.6 µg/mL | 31.3 µg/mL | 7.8 µg/mL | 
Nc1cc[n+](CCCCCCCCCC[n+]2ccc(N)cc2)cc1 [II, 1,10-bis-(4-amino-1-pyridinium)decane dibromide, reference compound] |  |  |  |  |  |  |  |  |  |  |  |  | MIC [1]: 7.8 µg/mL; MIC ([2]; read-out: MIC E. coli 100/B22, 18-20 hours at 37° C.): 62.5 µg/mL; MIC [3]: 31.3 µg/mL; MIC [4]: 62.5 µg/mL; MIC [5]: 250 µg/mL; MIC [6]: > 500 µg/mL; MIC [7]: 500 µg/mL; MIC [8]: 7.8 µg/mL; MIC [9]: 125 µg/mL; MIC [10]: 250 µg/mL; MIC [11]: 62.5 µg/mL; MIC [12]: 15.6 µg/mL
CCCCCCCCCCCCNc1cc[n+](CCCCCCCC[n+]2ccc(NCCCCCCCCCCCC)cc2)cc1 [Example 72, 1,8-bis-[4-(dodecylamino)-1-pyridinium]octane dibromide] | 7.8 µg/mL | > 62.5 µg/mL | 62.5 µg/mL | 31.3 µg/mL | > 62.5 µg/mL | 62.5 µg/mL | > 62.5 µg/mL | 15.6 µg/mL | > 62.5 µg/mL | 31.3 µg/mL | 31.3 µg/mL | 7.8 µg/mL | 
